Data taken from article PMC2874658 (Bioorganic & medicinal chemistry letters, 2010).

Legend:
hPK, M2 (PKM2) = hPK, M2 (PKM2) (Homo sapiens, UniProt P14618); assay: luminescent pyruvate kinase-luciferase coupled assay; type: biochemical; conditions: for activation at 57 µM: read-out: hPK, M2 Max. Res, % activation at 57 μM of compound, luciferase coupled assay; for potency (in words): PKM2 activation, SAR statement
PKM2 = PKM2 (Homo sapiens, UniProt P14618); assay: steady-state kinetics of PEP and ADP in the PK-LDH coupled assay; type: biochemical
Chain of PKM2 (P14618 whole entry): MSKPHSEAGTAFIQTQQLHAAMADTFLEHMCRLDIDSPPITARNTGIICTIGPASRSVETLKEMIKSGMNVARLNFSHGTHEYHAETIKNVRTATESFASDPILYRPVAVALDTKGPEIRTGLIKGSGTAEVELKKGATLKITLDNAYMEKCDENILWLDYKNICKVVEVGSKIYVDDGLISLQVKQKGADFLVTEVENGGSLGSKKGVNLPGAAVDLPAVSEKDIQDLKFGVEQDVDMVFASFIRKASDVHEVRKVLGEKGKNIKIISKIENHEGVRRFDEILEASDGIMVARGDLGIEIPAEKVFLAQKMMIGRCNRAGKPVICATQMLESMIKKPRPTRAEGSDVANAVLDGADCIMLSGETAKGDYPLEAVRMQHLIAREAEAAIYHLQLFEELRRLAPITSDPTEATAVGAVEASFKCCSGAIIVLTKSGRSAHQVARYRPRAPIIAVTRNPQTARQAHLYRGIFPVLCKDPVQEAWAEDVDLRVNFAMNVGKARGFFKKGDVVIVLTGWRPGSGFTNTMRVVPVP

Chain of hPK, M2 (PKM2) (P14618 whole entry): as above

Structure (SMILES) | activation at 57 µM (hPK, M2 (PKM2)) | potency (in words) (hPK, M2 (PKM2)) | other results
Cc1cc2[nH]c3c(=O)n(Cc4ccccc4F)ncc3c2s1 [compound 19] | 33% |  | 
Cc1cc2c(s1)c1cnn(Cc3ccccc3F)c(=O)c1n2C [compound 1] |  |  | decrease of KM for PEP (PKM2; in the presence of activator versus absence (KM ~ 1.5 mM)): 10 fold; Vmax (PKM2; with or without activator): 255 pmols/min
Cn1c2ccsc2c2ncn(Cc3ccccc3F)c(=O)c21 [compound 23] | < 80% |  | 
CCCCCn1ncc2c3sc(C)cc3n(C)c2c1=O [compound 25] |  | marked loss of potency | 
Cc1cc2c(s1)c1cnn(-c3ccccc3)c(=O)c1n2C [compound 24] |  | marked loss of potency | 
